From PMC9989937, “In-vitro antioxidant, lipoxygenase inhibitory, and in-vivo muscle relaxant potential of the extract and constituent isolated from Diospyros kaki (Japanese Persimmon)” (Heliyon, 2023)

Assays:
[1] = target: T1, lipoxygenase (EC 1.13.11.12) Type 1 (soybean) (Glycine max, UniProt P08170); assay: spectrophotometric lipoxygenase inhibition assay with linoleic acid substrate (positive control); assay type: biochemical
T1 construct: gene LOX1.1
T1 sequence (P08170 1-839): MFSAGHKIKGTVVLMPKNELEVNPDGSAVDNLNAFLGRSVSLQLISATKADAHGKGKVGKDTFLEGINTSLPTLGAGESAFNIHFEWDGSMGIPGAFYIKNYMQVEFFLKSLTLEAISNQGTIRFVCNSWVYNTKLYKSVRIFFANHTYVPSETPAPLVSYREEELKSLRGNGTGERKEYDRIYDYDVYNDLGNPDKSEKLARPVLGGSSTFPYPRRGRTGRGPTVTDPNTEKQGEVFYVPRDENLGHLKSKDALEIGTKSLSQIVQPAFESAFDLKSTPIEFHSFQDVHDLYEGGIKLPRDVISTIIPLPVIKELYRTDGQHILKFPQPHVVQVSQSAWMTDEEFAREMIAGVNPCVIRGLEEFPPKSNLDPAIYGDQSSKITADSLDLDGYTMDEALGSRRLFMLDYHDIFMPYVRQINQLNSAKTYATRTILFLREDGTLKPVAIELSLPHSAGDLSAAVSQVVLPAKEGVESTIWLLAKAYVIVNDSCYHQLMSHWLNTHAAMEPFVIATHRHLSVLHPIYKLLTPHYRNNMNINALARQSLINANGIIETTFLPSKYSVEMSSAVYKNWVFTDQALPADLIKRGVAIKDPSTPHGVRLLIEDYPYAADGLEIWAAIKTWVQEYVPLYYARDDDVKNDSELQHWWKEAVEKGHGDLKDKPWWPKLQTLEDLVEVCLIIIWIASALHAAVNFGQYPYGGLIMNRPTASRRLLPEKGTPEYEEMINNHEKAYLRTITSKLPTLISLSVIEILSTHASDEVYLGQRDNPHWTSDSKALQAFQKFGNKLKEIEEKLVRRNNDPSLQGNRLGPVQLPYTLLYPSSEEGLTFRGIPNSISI

[2] = target: T1, lipoxygenase (EC 1.13.11.12) Type 1 (soybean); assay: spectrophotometric lipoxygenase inhibition assay with linoleic acid substrate; assay type: biochemical

Compound: O=c1cc(-c2ccccc2)oc2cc(O)c(O)c(O)c12 [Baicalein]
- IC50 [1]: 40.9 µM

Compound: NC(=O)N1C(=O)/C(=C(\O)c2cccs2)c2cc(Cl)ccc21 [Tenidap]
- IC50 ([1]; read-out: IC50): 23 µM

Compound: COc1c(C)c(-c2cc(O)c3c(c2O)C(=O)C(C)=CC3=O)c(OC)c2c1C(=O)C=CC2=O [compound 1, 1′,4′-dihydroxy-1,4-dimethoxy-3,7′-dimethyl-[2,2′-binaphthalene]-5,5′,8,8′-tetraone]
- IC50 [2]: 37 µM
